Values of other authors in patent US8809210B2, “Low roughness high surface-energy, anti-microbial fabric” (priority 2009, dated 2014).

Conditions: when covalently bonded to a surface

## CCCCCCCCCCCCCCCCCC[N+](C)(C)CCC[Si](OC)(OC)OC.[Cl-] [Si-QAC, 3-(Trimethoxysilyl)-propyldimethyloctadecyl ammonium chloride]
  antimicrobial activity: antimicrobial activity
